We go through nine molecules from patent publication US10329304B2, “Compounds and methods for inhibition of hedgehog signaling and phosphodiesterase” (Vanderbilt University, priority 2014, dated 2019).

The target of one assay is PDE4D (Homo sapiens, UniProt Q08499). The assay is described as follows: PDE4 inhibition assay (PDE4D IC50). The class given is biochemical. Particulars: read-out: PDE4D IC50. The procedure, abridged:
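PDE4D incubated 60 min at room temperature in duplicate with 100 nM FAM-cAMP and compound (1% DMSO final) in Tris-HCl pH7.4, 10 mM MgCl2, 0.05% Tween 20. FAM-AMP detected with binding-agent nanobeads after a further 60 min, read at 485/528 nm.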

Another assay deals with MCF7. The assay is described as follows: Cell viability assay (CellTiter-Blue, 72 hr). The class given is cell-based. Particulars: human cancer cells. As to the method:
Cancer cell lines were seeded in 96 well tissue culture plate at a low density (10,000 cells per well) and treated with varying concentrations of Eggmanone. After 72 hr incubation, CellTiter-Blue Cell Viability Assay (Promega, Madison, Wis.) was then performed according to manufacturer's protocol. Absorbance was then measured in a Modulus Microplate reader (Promega, Madison, Wis.) at 590 nm and compared to cells treated with DMSO.
Cancer cell lines were seeded in 96 well tissue culture plate at a low density and treated with varying concentrations of compounds identified in Table 7. After 72 hr incubation, CellTiter-Blue Cell Viability Assay (Promega, Madison, Wis.) was then performed according to manufacturer's protocol. Absorbance was then measured in a Modulus Microplate reader (Promega, Madison, Wis.) at 590 nm and compared to cells treated with DMSO.

The subject of assay [1] is Hedgehog signaling (Gli-Luc reporter). The assay can be described thus: Hh Gli-Luciferase reporter assay in Shh-Light2 cells. The class given is cell-based, mouse. Conditions: for IC50 / EC50: Mus musculus, Shh Light2; for EC50: Table 9A, read-out: Shh Light2 Luc EC50; for Sonic hedgehog (SHH)-responsive Gli-luciferase reporter activity: Shh-conditioned media; for Purmorphamine-induced Gli-Luc reporter activity: purmorphamine 3 μM. The method in brief: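 Shh-Light2 cells with stable Gli-luciferase were stimulated by Shh-conditioned medium (or 3 μM purmorphamine or 20 nM SAG), or transfected with Gli-2, PDE4D3 or DN-PDE4D3. Overnight compound incubation preceded Steady-Glo read-out, normalized to CellTiter-Glo.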
(In general: In a reporter assay the amount or activity of a reporter protein is the signal.)

The next assay has as its system RWGT2. The assay can be described thus: Cell viability assay (CellTiter-Blue, 72 hr). The class given is cell-based, Human. The method in brief: (§1)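 Seed cells at low density, treat with varying compound concentrations, incubate, then measure absorbance at 590 nm and normalise to DMSO-treated cells.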
For orientation: Resazurin is reduced to fluorescent resorufin, in cell work by metabolically active cells.

The next assay deals with MDA-MB- 231. The assay is described as follows: Cell viability assay (CellTiter-Blue, 72 hr). The class given is cell-based, Human. The procedure, abridged:
as §1

A further assay deals with DaoY. The assay can be described thus: Cell viability assay (CellTiter-Blue, 72 hr). The class given is cell-based, Human. The procedure, abridged: as §1
Another assay relates to H82. The assay can be described thus: Cell killing EC50 in H82 lung cancer cells (Table 10). The class given is cell-based. Conditions: human cancer cells. As to the method:
It is anticipated that compounds disclosed herein could serve as an anti-tumor, anti-angiogenic, anti-metastatic, agent in the treatment of cancer. To this end, a series of clinically relevant cancer lines were assayed and the cell-killing EC50s for compounds according to the subject matter disclosed herein are provided in Table 10.

The next assay deals with zebrafish embryos. The assay can be described thus: Zebrafish embryo phenotypic assay (ZF). Conditions: for Hh-deficient mutant phenotype in embryos: 2 μM from 4 hpf where stated. The class given is in vivo. The procedure, abridged: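 Wild-type AB zebrafish embryos (~10) in E3 egg water dosed at 5 hours post-fertilization from 1 mM or 10 mM DMSO stock. Scored for gross morphological changes at 24, 48 and 72 hpf. Screening run used 5 μM final, added ~4 hpf, incubated at 28.5 °C.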

Where [2] appears, read: human cancer cells, read-out: CELL KILLING EC50 (μM) Lung Squam, NSCLC RWGT2.
The mark [3] stands for this setting: MDA-MB-231, human cancer cells, read-out: CELL KILLING EC50 (μM) Breast MDA-231.
[4] abbreviates: Daoy, human cancer cells, read-out: CELL KILLING EC50 (μM) Medulloblastoma DaoY.

“And” between values parts separate entries of the source, which are not always exact repeats. Identical values can stand only once. “Also recorded” adds a separate entry of the source. Like-named read-outs stand apart in the source and are kept apart here.

For the molecule `CCCn1c(SCC(=O)c2cccs2)nc2sc3c(c2c1=O)CCCC3` [Formula 9e], at PDE4D (mean ± SEM, normalized to DMSO), the IC50 (as a rule, the concentration at which inhibition is half-maximal) turned out to be 0.486 ± 0.001 µM.
For the molecule `C=C(C)Cn1c(SCC(=O)c2ccncc2)nc2sc3c(c2c1=O)CCCC3` [JEH-3-048-1], the “CELL KILLING EC50 (μM) Breast MCF7” value in the assay on MCF7 is reported as “UnCh”. For the same molecule, the figures for the IC50 (in assay [1]; on PDE4D) were 10 µM and 16 µM, respectively. For the same molecule, the EC50 (as a rule, the concentration at which the effect is half-maximal) is 40.2 µM in the assay on RWGT2 (setting [2]); 6.82 µM in the assay with MDA-MB- 231 (setting [3]); 0.057 µM in the assay with DaoY (72 h, read-out: EC50 (50% reduction of viable cell count at 72 hours), DaoY, Human Cerebellar Medulloblastoma); 0.0574 µM in the assay with DaoY (setting [4]). Further, the “CELL KILLING EC50 (μM) Lung H82” value with H82 was “UnCh”.
Consider `C=CCn1c(SCC(=O)c2cccs2)nc2sc3c(c2c1=O)CCCC3` [JEH-3-039-3], for which the “CELL KILLING EC50 (μM) Breast MCF7” value with MCF7 is on record as “UnCh”. Also, the half-maximal effective concentration (EC50) turned out to be 5.07 µM in the assay on RWGT2 (setting [2]), 1.74 µM in the assay with MDA-MB- 231 (setting [3]) and 34 µM in the assay on DaoY (setting [4]). Moreover, the “CELL KILLING EC50 (μM) Lung H82” value in the assay on H82 is “UnCh”.
For the molecule `C=C(C)Cn1c(SCC(=O)c2nccs2)nc2sc3c(c2c1=O)CCCC3` [JEH-3-069-1], the “CELL KILLING EC50 (μM) Breast MCF7” value in the assay with MCF7 was “UnCh”. Also, the EC50 in assay [1] was 10 to 20 µM; in the assay with RWGT2 (setting [2]) it was 27.6 µM; with MDA-MB- 231 (setting [3]), 14 µM; with DaoY (setting [4]), 26.9 µM. Moreover, in the assay on H82, the “CELL KILLING EC50 (μM) Lung H82” value is reported as “UnCh”.
As to `C=C(C)Cn1c(SCC(=O)c2cccs2)nc2sc3c(c2c1=O)CCCC3` [Eggmanone, 3-(2-methylallyl)-2-((2-oxo-2-(thiophen-2-yl)ethyl)thio)-5,6,7,8-tetrahydrobenzo[4,5]thieno[2,3-d]pyrimidine-4(3H)-one], the IC50 in assay [1] was 1.5 µM; on PDE4D, 0.89 µM and 0.893 µM. Moreover, the “Sonic hedgehog (SHH)-responsive Gli-luciferase reporter activity” value in assay [1] and in assay [1] (listed as eggmanone) was “inhibited Hh-inducible Gli-responsive luciferase (Gli-Luc) activity in a dose dependent manner” in each case. Also, in assay [1], the “Purmorphamine-induced Gli-Luc reporter activity” value was “blocked Gli-Luc reporter and ptch1 induction by purmorphamine”. Further, the EC50 in the assay with RWGT2 (72 h, read-out: EC50 (50% reduction of viable cell count at 72 hours), RWGT2, Human Lung Carcinoma) is 6.87 µM; with MDA-MB- 231 (72 h, read-out: EC50 (50% reduction of viable cell count at 72 hours), MDA-MB- 231, Human Breast Adenocarcinoma), 2.05 µM. In addition, the “Viability of Daoy medulloblastoma cells” value was “potently and preferentially reduced the viability; also recorded: significantly inhibited” in the assay on DaoY; “potently and preferentially reduced the viability” in the assay on DaoY (listed as eggmanone). Besides, the entries for the “Hh-deficient mutant phenotype in embryos” value in the assay with zebrafish embryos and in the assay on zebrafish embryos (listed as eggmanone) were “caused a number of phenotypes resembling those of Hh-deficient mutant embryos; also recorded: exhibited range of phenotypes found in Hh pathway mutants” and “caused a number of phenotypes resembling those of Hh-deficient mutant embryos”, respectively.
Regarding `C=C(C)Cn1c(SCC(=O)c2ccccn2)nc2sc3c(c2c1=O)CCCC3` [JEH-3-063], the “CELL KILLING EC50 (μM) Breast MCF7” value in the assay with MCF7 was “UnCh”. For the same molecule, the IC50 in assay [1] came out at 15 µM; at PDE4D it was 4.9 µM. Moreover, the EC50 was 10 to 20 µM in assay [1], 23.7 µM in the assay on RWGT2 (setting [2]), 4.46 µM in the assay with MDA-MB- 231 (setting [3]) and 15.3 µM in the assay on DaoY (setting [4]). Besides, in the assay on H82, the “CELL KILLING EC50 (μM) Lung H82” value is reported as “UnCh”.
For the molecule `C=C(C)Cn1c(SCC(=O)c2cccs2)nc2sc3c(c2c1=O)CCCC3` [EGM, Eggmanone], the “CELL KILLING EC50 (μM) Breast MCF7” value in the assay on MCF7 is “UnCh”. For the same molecule, the “Sonic hedgehog (SHH)-responsive Gli-luciferase reporter activity” value in assay [1] is on record as “inhibited Sonic hedgehog (SHH)-responsive Gli-luciferase (Gli-Luc) reporter activity in a dose-dependent manner”. The “Purmorphamine-induced Gli-Luc reporter activity” value in assay [1] was “inhibited purmorphamine (Purm, 3 μM)-induced Gli-Luc reporter activity in a dose-dependent manner”. The EC50 stood at 6.87 µM in the assay on RWGT2 (setting [2]), 2.05 µM in the assay on MDA-MB- 231 (setting [3]) and 31.5 µM in the assay with DaoY (setting [4]). Besides, the “Hh-deficient mutant phenotype in embryos” value in the assay on zebrafish embryos is “exhibited range of phenotypes found in Hh pathway mutants”. The “CELL KILLING EC50 (μM) Lung H82” value with H82 is on record as “UnCh”.
Take `C=C(C)Cn1c(SCC(=O)c2ccccc2)nc2sc3c(c2c1=O)CCCC3` [Formula 9g]: the IC50 at PDE4D (mean ± SEM, normalized to DMSO) stood at 0.965 ± 0.1 µM.
Turning to `O=C(CSc1nc2sc3c(c2c(=O)n1C1CC1)CCCC3)c1cccs1` [JEH-3-039-2], in the assay with zebrafish embryos (wild-type embryonic zebrafish, dosed 5 hpf), the “ZF Phenotype EC100” value was found to be 0.1 µM.
